Reference: PubChem BioAssay (NCI)
Values joined by “and” are separate entries in the source; they are usually repeats but may differ in a detail not shown here. Equal entries are not always repeated.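 Each compound was tested at five concentrations against cells in 96-well plates for 48 hours. GI50: concentration for 50% inhibition of growth. TGI is the concentration that stops growth completely.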

Key:
Assay in all cases: NCI-60 cell line screen, 48 h
BT-549 breast = system: BT-549 breast
CAKI-1 renal = system: CAKI-1 renal
HT29 colon = system: HT29 colon
NCI-H23 lung = system: NCI-H23 lung
RPMI-8226 leukemia = system: RPMI-8226 leukemia
SR leukemia = system: SR leukemia
TK-10 renal = system: TK-10 renal
UACC-257 melanoma = system: UACC-257 melanoma

Row | Structure (SMILES) | GI50 (BT-549 breast) | TGI (BT-549 breast) | GI50 (CAKI-1 renal) | TGI (CAKI-1 renal) | GI50 (HT29 colon) | TGI (HT29 colon) | GI50 (NCI-H23 lung) | TGI (NCI-H23 lung) | GI50 (RPMI-8226 leukemia) | TGI (RPMI-8226 leukemia) [µM] | GI50 (SR leukemia) | TGI (SR leukemia) [µM] | GI50 (TK-10 renal) | TGI (TK-10 renal) | GI50 (UACC-257 melanoma) | TGI (UACC-257 melanoma)
1 | COC(=O)[C@]1(C)CCC[C@@]2(C)C3=C(CC[C@H]12)C[C@@H](CC(OC(C)=O)OC(C)=O)[C@@H](C)C3 | 12.8 µM | 25.2 µM | 8.73 µM | 18.2 µM | 18 µM | > 50 µM | 9.15 µM | 16.7 µM | 5.23 µM | 27.7 | 11.2 µM | > 50 | 13.5 µM | 27.2 µM | 10.1 µM | 19.7 µM
2 | C=C1C(=O)O[C@@H]2/C=C(/C)[C@@H](OC(C)=O)C[C@@H](O)/C(C)=C\[C@@H](OC(=O)[C@]3(C)O[C@@H]3C)[C@@H]12 |  | 18.8 µM |  | 11.1 µM |  | 30.7 µM |  | 35.6 µM |  | 26.3 |  | 21.5 |  | 29.5 µM |  | 33.2 µM
3 | Cc1c(C(=O)Nc2ccc(N3C[C@@H](C)O[C@@H](C)C3)nc2)cccc1-c1ccc(OC(F)(F)F)cc1 | 10.4 µM and 15.1 µM | 40.7 µM and 43.9 µM | 3.86 µM and 3.89 µM | 26.3 µM and 23.3 µM | 11.9 µM and 15.1 µM | 41.7 µM and 64.4 µM | 5.98 µM and 12.4 µM | 25.5 µM and 40.4 µM | 5.7 µM and 12 µM | > 100 | 28.2 µM and > 100 µM | > 100 | 5.48 µM and 9.98 µM | 21.2 µM and 30.3 µM | 10.7 µM and 12.6 µM | 38 µM and 74.7 µM
4 | CN(C(=O)C(C)(C)C)c1ccccc1I(=O)=O | > 100 µM | > 100 µM | > 100 µM | > 100 µM | > 100 µM | > 100 µM | > 100 µM | > 100 µM | 18.8 µM | 66 | 3.15 µM | 26.4 | > 100 µM | > 100 µM | > 100 µM | > 100 µM
5 | CC1=CC2(C)/C=C(C)/C=C\CC(O)/C=C3/C=CC(=C4C(=O)OC2(CC1C)C4=O)OC3 (stereo unspecified) | 2.11 µM | 4.79 µM | 1.65 µM | 3.63 µM | 2.4 µM | > 26.4 µM | 2.66 µM | 7.82 µM | 0.328 µM |  | 1.59 µM | > 100 | 1.54 µM | 3.46 µM | 1.82 µM | 4.36 µM
6 | COc1nn(C)cc1Nc1nccc(-c2c[nH]c3c(NC(=O)[C@@H](C)N4CCN(C)CC4)cccc23)n1 | 22.5 µM | 72.9 µM | 29.2 µM | > 100 µM | 29.4 µM | > 100 µM | 40.5 µM | > 100 µM | 49.5 µM | > 100 |  |  | 44.1 µM | > 100 µM | 27.7 µM | 78.7 µM
7 | CCC(=O)NC1=C(Cl)C(=O)C(NC(=O)CC)=C(Cl)C1=O | 16 µM | 29.7 µM | 5.98 µM | 10.8 µM | 25.2 µM | 53.3 µM | 18.5 µM | 40.8 µM | 8.98 µM | 30.4 | 8.13 µM | > 23.2 | 6.91 µM | 15.4 µM | 14.8 µM | 28.3 µM
